We go through three molecules from patent US6004972A, “Therapeutic process for the treatment of the pathologies of type II diabetes” (The Board of Supervisiors of Louisiana State University and …, priority 1998, dated 1999).

Values joined by “and” are separate entries in the source; they are usually repeats but may differ in a detail not shown here. Equal entries are not always repeated.

The test system of data set [1] is Type II diabetes. The data set can be described thus: Oral bromocriptine in a person treated with diabenase (Example 3). It is filed as in vivo, human. Here is the method:
A person was being treated with a hypoglycemic agent (diabenase) which had reduced the blood glucose of the patient from 250 mg/dl to about 180 mg/dl during one year of treatment. […] Removal of the hypoglycemic agent allowed glucose levels to rise and remain near 100 mg/dl (a normal level) in the succeeding two months.

The next data set relates to symptoms of diabetes. The data set can be described thus: Oral bromocriptine in a diabetic (Example 2). It is filed as in vivo, human. As to conditions: 1.25-2.50 mg/day orally just after awakening. The protocol: At the beginning of the treatment, blood glucose concentration was shown by routine testing to be near 250 mg/dl. […] Fasting levels below 120 mg/dl are considered normal.

Data set [2] concerns Type II diabetes. The data set can be described thus: Oral bromocriptine in a diabetic (Example 4). The data set is classed as in vivo, human. As to conditions: parlodel 2.5 mg/day orally, 2.5 months. Here is the method:
A person weighing nearly 300 pounds was known to be a diabetic but had resisted all previous admonitions for treatment. […] Body weight has dropped 22 pounds and plasma glucose levels decreased to 160 mg/dl.

In data set [3] the test system is circadian rhythms of plasma cortisol and prolactin in adult female pigs. As to the kind of experiment: Circadian plasma cortisol and prolactin levels in pigs given bromocriptine implants. The data set is classed as in vivo, pig (swine). The note with it: for Plasma Cortisol Level: implant 10 mg/pig/day. Here is the method:
Adult female pigs, six in number, were given bromocryptine implants (10 mg/pig/day) lasting over a period of time while the pigs were subjected to daily periods of daylight and darkness (12:12). […] A control group of six pigs were similarly treated to periods of daylight and darkness except that no bromocryptine was administered to the pigs of the control group. The period of darkness was from 1800 to 0600, and the period of daylight from 0600 to 1800. Daily tests were made of the blood of the pigs at four hour intervals over a 14 day period to determine the plasma cortisol level (μg/dl) and plasma prolactin level […] of both groups. The average for each series of tests made on each group are given as follows: […]

The test system of a further data set is adult female pigs. As to the kind of experiment: Effects of bromocriptine implants on fat stores and plasma triglyceride, glucose and insulin in pigs. The data set is classed as in vivo, pig (swine). The protocol: Adult female pigs, six in number, were given bromocryptine implants (10 mg/pig/day) lasting over a period of time while the pigs were subjected to daily periods of daylight and darkness (12:12). […] A control group of six pigs were similarly treated to periods of daylight and darkness except that no bromocryptine was administered to the pigs of the control group. The period of darkness was from 1800 to 0600, and the period of daylight from 0600 to 1800. Daily tests were made of the blood of the pigs at four hour intervals over a 14 day period to determine the plasma cortisol level (μg/dl) and plasma prolactin level […] of both groups. The average for each series of tests made on each group are given as follows:
Notes: Backfat thickness was used as an index in determining fat stores.
Plasma was sampled at 1600, 2000 and 2400 after two weeks of treatment. Each pig of the treatment group and control group was sampled.

Data set [4] relates to noninsulin dependent (Type II) diabetes. As to the kind of experiment: Timed oral bromocriptine in fifteen persons with noninsulin dependent (Type II) diabetes (Example 5). It is filed as in vivo, human. The note with it: for Body Fat Loss / Plasma Glucose (% initial) / Skinfold Measurements (% initial): p < 0.05. The protocol: The participants were carefully instructed not to alter their daily activity or eating habits during the course of treatment.
Skinfold thickness was measured on the left side of the body by a trained anthropometrist in four regions: biceps, triceps, subscapular, and suprailiac, following the recommendations of the International Biological Program. Because of its frequent use, percent body fat was estimated from the common logarithm of the sum of the four skinfolds, using the equations of Durnin and Rahman and of Siri. […] Skinfold measurements were taken initially and at weekly intervals by the same individual. Blood pressure was also determined at these times. Morning fasting plasma glucose in the diabetic group was determined initially and after 4-8 weeks.

For the next data set, the system named is body fat stores. As to conditions: injections at different times of day; cited from earlier work.
The mark [5] stands for this setting: parlodel 1.25-2.5 mg/day orally.
Setting [6] is: subjects on hypoglycemic drugs (8), 4-8 weeks.
Where [7] appears, read: subjects receiving insulin (7), 4-8 weeks.

With `CCCNC(=O)NS(=O)(=O)c1ccc(Cl)cc1` [diabenase], the blood glucose level entry with Type II diabetes [1] (diabenase alone, one year of treatment, from 250 mg/dl) is listed as “about 180 mg/dl”.
Regarding `CC(C)C[C@H]1C(=O)N2CCC[C@H]2[C@]2(O)O[C@](NC(=O)[C@@H]3C=C4c5cccc6[nH]c(Br)c(c56)C[C@H]4N(C)C3)(C(C)C)C(=O)N12` [bromocriptine, 2-bromo-alpha-ergocryptine], the blood glucose level in the data set on Type II diabetes [1] (after removal of hypoglycemic agent, succeeding two months) is around 100 mg/dL; in the data set with Type II diabetes [1] (parlodel 1.25-2.5 mg/day orally, about an hour after awakening, with diabenase, 2 weeks, from about 180 mg/dl), 80 mg/dL. In the data set on Type II diabetes [1] (setting [5]), the “reduction of body fat” value is “about 10%”. For the same molecule, the “reduction of body weight” value with Type II diabetes [1] (setting [5]) was “about 10%”; with symptoms of diabetes, “about 12%”; in data set [4] (subjects taking hypoglycemic drugs, not statistically significant), 2.4 pounds per subject; in data set [4] (subjects taking insulin) it was “not at all reduced”. Moreover, in the data set on symptoms of diabetes, the “reduction of indices of body fat” value is “about 12%”. For the same molecule, in the data set with symptoms of diabetes (successive levels in following weeks, initial near 250 mg/dl), the blood glucose concentration was 180 mg/dL and 155 mg/dL and 135 mg/dL and 97 mg/dL and 101 mg/dL. In addition, in the data set with Type II diabetes [2] (initial near 350 mg/dl), the plasma glucose level was 160 mg/dL. For the same molecule, the “drop in body weight” value in the data set with Type II diabetes [2] (two to three hours after awakening, initial nearly 300 pounds) stood at 22 pounds. In data set [3] (implant), the “phase relationships of the circadian rhythms of plasma corticosteroid and prolactin concentrations” value is reported as “altered the phase relationships”. The “Plasma Cortisol Level” value came to 3.2 µg/dL in data set [3] (LD 12:12, time 0400, control 5.5); 1.9 µg/dL in data set [3] (LD 12:12, time 0800, control 4.8); 1.5 µg/dL in data set [3] (LD 12:12, time 1200, control 3.4); 3.2 µg/dL in data set [3] (LD 12:12, time 1600, control 1.6); 2.8 µg/dL in data set [3] (LD 12:12, time 2000, control 1.9); 3.5 µg/dL in data set [3] (LD 12:12, time 2400, control 2.7). In the data set on adult female pigs (10 mg/day/pig implant, 28 days after treatment), this molecule gave a Backfat of 86 % control. In the data set on adult female pigs (10 mg/day/pig implant, two weeks, sampled 1600, 2000 and 2400, control 52 ± 8), the “Triglyceride (plasma)” value is 27 ± 3 mg/dL. The “Glucose (plasma)” value in the data set with adult female pigs (10 mg/day/pig implant, two weeks, sampled 1600, 2000 and 2400, control 99 ± 5) was found to be 86 ± 3 mg/dL. Moreover, the “reduction in plasma insulin concentration” value with adult female pigs (implant) is reported as “not statistically significant”. Moreover, the “reduction of body fat stores” value in the data set on adult female pigs (implant, 28 day period of treatment) came out at 14%. Also, the “reduction of plasma glucose levels” value with adult female pigs (implant, early period of darkness (2000-2400)) is 13%. In addition, the “reduction of plasma triglyceride concentration” value with adult female pigs (implant, near sunset) amounted to 48%. Moreover, the transient anorexic effects entry in data set [4] (1.25 mg for 2-3 days then 2.5 mg daily, oral) was “did not occur”. The “mild nausea, participants” value in data set [4] (1.25 mg for 2-3 days then 2.5 mg daily, oral, transient, first few days) was below 10%. The “reductions in body fat” value in data set [4] (after 6 weeks without food restriction) is reported as 4.4 % of the body weight. Also, the “blood glucose concentrations and skinfold measurements” value in data set [4] (all subjects, 4-8 weeks) is on record as “reduced in every diabetic subject”. The “doses of hypoglycemic drugs and insulin” value in data set [4] (during bromocriptine treatment) is recorded as “reduced in three other subjects”. The “oral hypoglycemic medication discontinued” value in data set [4] (during bromocriptine treatment) is “completely discontinued during bromocriptine treatment in three individuals”. Also, the “fat loss, average” value in data set [4] (present study) is 1.4 pounds per week. For the same molecule, the “Body Fat, final” value in data set [4] (subjects on hypoglycemic drugs (8), 4-8 weeks, initial 36.5 ± 2.3, p < 0.05) amounted to 32.9 ± 2.0 % Body Weight; in data set [4] (subjects receiving insulin (7), 4-8 weeks, initial 33.4 ± 2.2, p < 0.05), 31.7 ± 1.7 % Body Weight. In addition, the “Plasma Glucose, final (fasting)” value in data set [4] (subjects on hypoglycemic drugs (8), 4-8 weeks, initial 231 ± 19, p < 0.05) was 166 ± 19 mg/dL. Also, in data set [4] (subjects on hypoglycemic drugs (8), 4-8 weeks, initial 255 ± 21), the “Total Body Weight, final” value is 253 ± 20 pounds. Besides, the “Loss of Body Weight” value in data set [4] (subjects on hypoglycemic drugs (8), 4-8 weeks, not statistically significant) is reported as -2.4 ± 2.0 pounds; in data set [4] (setting [7]), -0.4 ± 2.0 pounds. Also, the “Body Fat Loss” value in data set [4] (setting [6]) is listed as -10.0 ± 2.2 pounds; in data set [4] (setting [7]) it was -3.1 ± 0.9 pounds. Besides, the “Plasma Glucose (% initial)” value came to 72 ± 6 % initial in data set [4] (setting [6]) and 65 ± 8 % initial in data set [4] (setting [7]). For the same molecule, the figures for the “Skinfold Measurements (% initial)” value in data set [4] (setting [6]) and in data set [4] (setting [7]) were 79 % initial and 84 % initial, respectively. Besides, in data set [4] (subjects taking hypoglycemic drugs, 4-8 weeks), the “mean loss of body fat” value is 10 pounds. The “mean reduction in skinfold measurements” value in data set [4] (subjects taking hypoglycemic drugs, four regions, 4-8 weeks) turned out to be 21%. In addition, the “decline in total body fat” value in data set [4] (subjects taking hypoglycemic drugs, within 4 to 8 weeks) was found to be 10.7%. The “reduction in % body fat” value in data set [4] (subjects taking insulin) turned out to be 5.1. Moreover, the “reduction in body fat” value in data set [4] (subjects taking insulin) is on record as 3.1 pounds. The molecule also returned a reduction in skinfold in data set [4] (subjects taking insulin) of 16%. The “blood glucose levels after termination of bromocriptine” value in data set [4] (three individuals off oral hypoglycemic medication, at least two months after bromocriptine terminated) was below 120 mg/dL.

B1: Prolactin: a hormone secreted by the pituitary (protein, UniProt P01236 29-227, looked up)
Prolactin: LPICPGGAARCQVTLRDLFDRAVVLSHYIHNLSSEMFSEFDKRYTHGRGFITKAINSCHTSSLATPEDKEQAQQMNQKDFLSLIVSILRSWNEPLYHLVTEVRGMQEAPEAILSKAVEIEEQTKRLLEGMELIVSQVHPETKENEIYPVWSGLPSLQMADEESRLSAYYNLLHCLRRDSHKIDNYLKLLKCRIIHNNNC
For B1, the stimulation of fattening result in the data set with body fat stores is “stimulate fattening only when injected at certain times of the day”.
